One data set relates to hrR3. Kind of data set: Dexamethasone treatment of hrR3-infected, mimosine/GCV-treated neural stem cell cultures. In kind it is cell-based, HSV-1. As to conditions: dexamethasone 10^-7 M on day 10; detection level.
Data set [1] concerns neural stem cells (clone C17.2). Kind of data set: Cell number and growth of neural stem cells under mimosine and GCV. In kind it is cell-based, murine. The text has this:
Medium was changed every third day. […] Medium was replaced on day 4 and day 6.
In contrast, untreated neural stem cell cultures continued proliferating over the same period, reaching a density of 1.7×10^6 cells/ml on day 10. […] Re-growth of neural stem cells occurred at a faster rate if cells were additionally rinsed and split 1:8 after removal of drug(s) on day 10.

Data set [2] shares this test system. Kind of data set: Cytopathic effect and morphology of neural stem cells (drug treatment, virus infection). As to conditions: for cell morphology: cells below confluency, mimosine 400 μM. The procedure: Neural stem cells were grown in 24-well plates until they reached confluency (approximately 400,000 cells/well). Medium was changed every third day. […] Medium was replaced on day 4 and day 6. […] Cell culture medium was changed again on days 10, 13 and 17. […] Cell morphology and cells/well for different treatment conditions were determined in duplicate on days 0, 4, 7, 10, 13, and 17. The number of cells/well was determined using a Coulter Counter (Coulter Electronics, Hialeah, Fla.).
Virus titers in the conditioned medium—and in some experiments also in cell lysates—were determined by standard plaque tests on Vero cells. […] Also, the influence of the expression of viral proteins VP 16 and ICP6 (RR), mediated by infection with amplicon vectors, on the replication of hrR3 mutant virus was determined at different time points after infection of neural stem cells. Stocks of helper-free packaged amplicons HSV 16. HSVRR and HSVIacZ (100 μl each) were added to the wells on day 7, 10, or 13. Three days later titers of hrR3 in the medium were determined by plaque assay.
The genotype of hrR3 is RR- LacZ^+ [Goldstein and Weller, Virology 166: 141-51, 1988] with the lacZ gene under control of the ICP6 early viral promoter. RRP450 was derived from hrR3 by replacement of the lacZ gene with the cytochrome P450 gene [Chase et al., Nat Biotechnol 16: 444-8, 1998].

This is an account of results in patent US7655224B2, “Neural stem cells and use thereof for brain tumor therapy” (priority 1998, dated 2010).

Consider `C[C@@H]1C[C@H]2[C@@H]3CCC4=CC(=O)C=C[C@]4(C)[C@@]3(F)[C@@H](O)C[C@]2(C)[C@@]1(O)C(=O)CO` [dexamethasone], for which the “virus titers in the media and cell lysates” value in the data set on hrR3 is listed as < 10 pfu/100,000 cells.

Turning to `Nc1nc(O)c2ncn(COC(CO)CO)c2n1` [GCV, ganciclovir], the cell viability entry in data set [1] (5 μM added from day 6, compared to mimosine alone) is “did not significantly affect cell viability”. Also, in data set [2], the cell morphology result is on record as “did not change this morphology”.

In the case of `NC(Cn1ccc(=O)c(O)c1)C(=O)O` (stereo not drawn) [mimosine], the “treatment time at which block of cell division and viral replication is reversible” value in data set [1] is not below 13 days. Further, in data set [1] (400 μM, 4 and 7 days after beginning of treatment), the Cells/well entry is “around 400,000 cells”. In addition, in data set [1] (infected MOI 1 day 7, day 13 and 17), the “cell number of infected cultures kept on treatment” value was “remained at the same cell number”. For the same compound, the “growth after removal of drug” value in data set [1] (removed on day 10) is reported as “growth of neural stem cells resumed”. The “virally induced CPE in presence of drug” value in data set [2] is recorded as “prevented virally induced CPE”. Moreover, the cell morphology entry in data set [2] is “developed extensions and a more neuronal shape”. Further, the CPE entry is listed as “some cytopathic effect” in data set [2] (day 13, infected day 7, split 1:8 into drug-free media day 10); “no CPE” in data set [2] (day 13, infected, not split); “extensive CPE” in data set [2] (day 17, infected and split); “some CPE” in data set [2] (day 17, infected, non-split). In addition, in data set [2] (infection at MOI of 10), the “cytopathic effect associated with virus replication” value is listed as “typical cytopathic effect”. Besides, the “cytopathic effect of drug alone” value in data set [2] (uninfected) was “did not induce a significant cytopathic effect”.
